# Assay results published in publication PMC2852483 (Molecular cancer therapeutics, 2010).
# Numbered stars: 1 amine (or outer) side, 2 acyl side, 3 side chain; on linkers, the order of the positions; unused ones are H or OH. Square brackets hold non-standard residues; d marks the D form. Side chains are listed from the residue outwards. Peptide text beside a SMILES is read from it. * marks the point of attachment. NOTA(2S-Bn(4-NHCS)) = O=C(O)CN1CCN(CC(=O)O)C[C@H](Cc2ccc(NC(=S)*)cc2)N(CC(=O)O)CC1; NH(2-(imidazol-4-yl)ethyl) = c1ncc(CCN*)[nH]1; Suc = O=C(CCC(=O)[*:2])[*:1]
# Columns and labels:
# [1] = set-up: species or system nude BALB/c mice; conditions: mouse, in vivo, 5 MBq
# [2] = tested on: s.c. CEA-expressing LS174T tumor; set-up: species or system nude BALB/c mice; conditions: mouse
SMILES,tissue uptake [1] [%ID/g],stability in vivo [2],tumor uptake in non-pretargeted mice ([2]; in vivo) [% ID/g]
C[C@@H](NC(=S)Nc1ccc(C[C@H]2CN(CC(=O)O)CCN(CC(=O)O)CCN2CC(=O)O)cc1)C(=O)N[C@H](CCCCNC(=O)CNC(=O)CCC(=O)NCCc1c[nH]cn1)C(=O)N[C@H](Cc1ccc(O)cc1)C(=O)N[C@H](CCCCNC(=O)CNC(=O)CCC(=O)NCCc1c[nH]cn1)C(N)=O [IMP-449] ({NOTA(2S-Bn(4-NHCS))}-[dA][dK]([Gly-Suc-NH(2-(imidazol-4-yl)ethyl)])[dY][dK]([Gly-Suc-NH(2-(imidazol-4-yl)ethyl)])-NH2; N-terminus and C-terminus assumed),0.54 ± 0.2,,
C[C@@H](NC(=S)Nc1ccc(C[C@H]2CN(CC(=O)O)CCN(CC(=O)O)CCN2CC(=O)O)cc1)C(=O)N[C@H](CCCCNC(=O)CNC(=O)CCC(=O)NCCc1c[nH]cn1)C(=O)N[C@H](Cc1ccc(O)cc1)C(=O)N[C@H](CCCCNC(=O)CNC(=O)CCC(=O)NCCc1c[nH]cn1)C(N)=O [^18F-IMP-449] ({NOTA(2S-Bn(4-NHCS))}-[dA][dK]([Gly-Suc-NH(2-(imidazol-4-yl)ethyl)])[dY][dK]([Gly-Suc-NH(2-(imidazol-4-yl)ethyl)])-NH2; N-terminus and C-terminus assumed),,stable in vivo,0.45 ± 0.38
